From patent publication US6569863B1, “Bicyclic heteroamatic compounds useful as LH agonists” (Akzo Nobel NV, priority 1999, dated 2003) come the findings set out here.

In one assay the test system is immature female mice. Briefly: In vivo ovulation induction assay for LH bioactivity in immature female mice. Further details: species or system mouse. To be noted: 50 mg/kg p.o., FSH-primed immature female mice, 24 h after administration. From the text:
In female immature mice which are stimulated with follicle stimulating hormone (FSH), ovulation can be induced by luteininzing hormone (LH) or by human chorionic gonadotrophin (hCG) which binds to the same LH-receptor on the Graafian follicles. Binding to the LH-receptor initiates a biochemical cascade, which eventually results in follicular rupture and extrusion of a mature oocyte. To measure the in vivo activity of LH-agonistic compounds, inunature 20 days old mice (B6D2F1 stain, Broekman Institute, the Netherlands) are primed with unary FSH (Humegon; 12.5 IU/l, 0.1 ml s.c.) to initiate folliculogenesis. Forty-eight hours after FSH treatment test compound, reference compound or vehicle (10% cremophor solution) are administered to the animals. Test compounds (50 mg/kg in 0.1 ml) and vehicle (0.1 ml) are administered p.o., reference compounds (500 IU/kg hCG in 0.1 ml) are injected s.c. As a reference, hCG in-house standards are used which are calibrated against International Reference preparations of human hCG provided by the National Institute for Biological Standards and Controls (NMSC, London, UK). Twenty-four hours after administration of test compound, reference compound or vehicle, animals are killed by cervical dislocation. The oviducts are dissected and collected in 0.9% NaCl. Next, the oviducts are placed between two glass plates and examined for the presence or absence of ovulated ova under a microscope. The number of ovulated ova present in the oviducts is indicative for in vivo LH-bioactivity.

The target of another assay is T1, Leydig cell LH receptor (Mus musculus, UniProt P30730).
T1 construct: Leydig cells are isolated from the testes of mature, 9 to 13 weeks old, mice; from tissue; host or cells: primary Leydig cells from mouse testes (strain HSD/Cpb: S E, Harlan)
T1 sequence (P30730 27-700): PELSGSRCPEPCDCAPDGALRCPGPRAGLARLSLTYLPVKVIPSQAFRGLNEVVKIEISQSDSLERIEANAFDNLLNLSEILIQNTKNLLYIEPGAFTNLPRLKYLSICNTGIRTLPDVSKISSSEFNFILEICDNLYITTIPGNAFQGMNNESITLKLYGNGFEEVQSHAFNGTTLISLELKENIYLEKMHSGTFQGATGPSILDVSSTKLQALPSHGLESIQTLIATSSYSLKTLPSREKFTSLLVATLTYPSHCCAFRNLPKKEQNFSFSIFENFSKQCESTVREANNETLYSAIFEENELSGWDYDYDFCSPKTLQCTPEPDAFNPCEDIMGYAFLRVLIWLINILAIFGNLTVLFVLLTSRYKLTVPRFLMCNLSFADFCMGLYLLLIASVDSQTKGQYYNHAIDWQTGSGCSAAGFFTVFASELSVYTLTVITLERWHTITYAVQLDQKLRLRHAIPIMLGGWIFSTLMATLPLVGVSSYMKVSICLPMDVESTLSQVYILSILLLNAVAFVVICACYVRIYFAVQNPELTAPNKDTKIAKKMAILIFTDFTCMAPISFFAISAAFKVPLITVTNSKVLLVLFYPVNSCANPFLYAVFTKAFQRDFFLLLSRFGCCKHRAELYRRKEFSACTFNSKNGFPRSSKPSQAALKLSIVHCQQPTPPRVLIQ
The assay can be described thus: In vitro test for LH bioactivity in mouse Leydig cells (testosterone production). Format: cell-based. The conditions noted are these: 4 h incubation, testosterone measured by RIA. The source says: In male mice, the luteinising hormone (LH) induces testosterone production in testicular Leydig cells. […] The in vitro Leydig cell assay (van Damme et al, 1974; modified by Mannaerts et al, 1987) is used to determine the LH bioactivity of compounds that bind to the Leydig cell LH receptor which in turn causes testosterone production.
For this assay, Leydig cells are isolated from the testes of mature, 9 to 13 weeks old, mice (strain: HSD/Cpb: S E, Harlan, The Netherlands). Therefore, mice are killed and the testes are quickly removed and decapsulated. Each testis is transferred to a separate well of a tissue culture plate containing 0.75 ml culture medium per well. The contents of each well are passed through a 30 cm glass tube (inside diameter 2.5 mm, narrowed to 1.2 mm at 4 places in the middle). The suspension obtained is filtered through a 30 μm nylon mesh and the filtrate is pre-incubated in a 50 ml plastic tube for 30 min. at 37° C. in an incubator in a water-saturated atmosphere of 95% air/5% CO2. Following preincubation the tube is centrifuged at 1600 N/kg for 5 min and the supernatant is decanted. The resulting pellet is resuspended in culture medium (0.5 mg original testis/ml) and the suspension is kept homogeneous by stirring it very slowly on a magnetic stirrer.
This Leydig cell suspension (100 μl) is added to the wells of a micotiter plate containing 50 μl reference compound, test compound or vehicle (culture medium) per well. As a to reference, LH or hCG in-house standards are used which are calibrated against International Reference preparations of human LH or hCG provided by the National Institute for Biological Standards and Controls (NIBSC, London, UK). Test and reference compounds are dissolved, diluted and assayed in the same culture medium. The plates containing reference and test compounds are incubated for 4 h at 37° C. in an incubator in a water-saturated atmosphere of 95% air/5% CO2. Following incubation, plates are sealed and stored at −20° C. until testosterone measurement.
Prior to testosterone measurement, the contents of the microtiter plates are thawed at room temperature and the plates are centriged at 150 N/kg for 5 min. An aliquot of 30 μl supernatant of each well is diluted with culture medium (60×) to obtain a suitable dilution for testosterone measurement. Aliquots (12.5 μl) of each diluted test sample are then assayed using a direct testosterone RIA-kit.

Regarding `CSc1nc(-c2cccc(NC(=O)c3ccccc3)c2)c2c(N)c(C(=O)NC(C)(C)C)sc2n1` [Example 111, tert-Butyl 5-Amino-2-methylthio-4-(N-benzoyl-3-aminophenyl)-thieno[2,3-d]pyrimidine-6-carboxamide], the “Mouse in vivo ovulation induction (% ovulating animals)” value (“Mouse … (% ovulating animals)” below) in the assay with immature female mice is given as 40%. Besides, a half-maximal effect at Leydig cell LH receptor (EC50) was put at 280 nM.

Regarding `COc1cccc(-c2nc(SC)nc3sc(C(=O)NC(C)(C)C)c(N)c23)c1` [Example 112, tert-Butyl 5-Amino-2-methylthio-4-(3-methoxyphenyl)-thieno[2,3-d]pyrimidine-6-carboxamide], the “Mouse … (% ovulating animals)” value in the assay on immature female mice is given as 40%. For the same compound, the midpoint of the response on Leydig cell LH receptor, the EC50, lay at 430 nM.

Regarding `COc1cccc(-c2nc(SC)nc3sc(C(=O)N(C)C(C)C)c(N)c23)c1` [Example 113, N-Methyl-N-isopropyl 5-Amino-2-methylthio-4-(3-methoxyphenyl)-thieno[2,3-d]pyrimidine-6-carboxamide], in the assay on immature female mice, the “Mouse … (% ovulating animals)” value is 50%. In addition, on Leydig cell LH receptor, the EC50 (commonly the concentration giving half of the maximal effect) amounted to 870 nM.

With `CCOc1nc(-c2cccc(OC)c2)c2c(N)c(C(=O)NC(C)(C)C)sc2n1` [Example 114, tert-Butyl 5-Amino-2-ethoxy-4-(3-methoxyphenyl)-thieno[2,3-d]pyrimidine-6-carboxamide], the “Mouse … (% ovulating animals)” value with immature female mice turned out to be 30%. At Leydig cell LH receptor, the EC50 came out at 1900 nM.

Consider `COc1cccc(-c2nc(-c3cccs3)nc3sc(C(=O)N4CCOCC4)c(N)c23)c1` [Example 115, 5-Amino-2-(2-thienyl)-4-(3-methoxyphenyl)-6-(N-morpholinocarbonyl)thieno[2,3-d]pyrimidine], for which the “Mouse … (% ovulating animals)” value in the assay with immature female mice is listed as 20%. For the same compound, on Leydig cell LH receptor, the EC50 is 3100 nM.

For the compound `CSc1nc(-c2cccc(NC(=O)CNC(C)(C)C)c2)c2c(N)c(C(=O)NC(C)(C)C)sc2n1` [Example 116, tert-Butyl 5-Amino-2-methylthio-4-(N-(2-(tert-butylamino)acetyl)-3-aminophenyl)-thieno[2,3-d]pyrimidine-6-carboxamide], the “Mouse … (% ovulating animals)” value in the assay with immature female mice is 13%. For the same compound, it took 320 nM to reach a half-maximal effect at Leydig cell LH receptor (EC50).

As to `CSc1nc(-c2cccc(OCCCc3cccnc3)c2)c2c(N)c(C(=O)NC(C)(C)C)sc2n1` [Example 117, tert-Butyl 5-Amino-2-methylthio-4-(3-(3-(3-pyridyl)-propoxy)phenyl)-thieno[2,3-d]pyrimidine-6-carboxamide], in the assay on immature female mice, the “Mouse … (% ovulating animals)” value was 40%. The compound further yielded an EC50 on Leydig cell LH receptor of 1800 nM.
